Assay results as given in patent US20260115209A1, “COMBINATION THERAPY INCLUDING COX-2 INHIBITOR FOR THE TREATMENT OF CANCER” (THE REGENTS OF THE UNIVERSITY OF CALIFORNIA, priority 2022, published 2026).

Key:
Type in all cases: cell-based
[1] = test system: SFK; test: Western blot of SFK activation (Y419 phosphorylation); conditions: BRAF^V600E CRC cell lines
Description: (§1) For samples to be analyzed with the HT-KAM platform, cells at ˜85% confluency were washed three times with cold PBS and lysed with freshly prepared 1× cell lysis buffer (1 ml per 2.5×10^6 cells) (lOX Cell Lysis Buffer, Cell Signaling; cat. #9803) complemented with 1× of Halt Protease & Phosphatase (100×, ThermoScientific; cat. #1861281). Cell lysates were collected and spun down at 14,000 rpm for 15 min at 4° C. and supernatants stored at −80° C. For samples to be analyzed by western blot, cell lysates were prepared with RIPA lysis buffer (150 mM NaCl, 0.1% SDS, 1% Nonidet P40, 1% sodium deoxycholate and 10 mM sodium phosphate, pH 7.2) supplemented with protease and phosphatase inhibitors. After clearing by centrifugation at 12,000 rpm for 10 minutes at 4° C., the lysates were analyzed as described in the respective experiments.
For western-blot, samples were denatured by boiling in 1× Laemmli buffer and run on an 8% SDS-PAGE gel. After transfer onto a PVDF membrane and blocking with 3% BSA, the membranes were incubated with primary antibodies overnight at 4° C., washed 3 times with TBST (Tris-buffered saline containing 0.05% Tween-20), incubated with secondary antibodies for 1 hour at room temperature and developed using chemoluminescence (cat #32209 from Pierce).
Antibodies anti-HSP90 was procured from Santa Cruz Biotechnologies (H-114, cat #7947). […]

[2] = test system: SRC; test: High throughput kinase-activity mapping (HT-KAM) of treated cell extracts; conditions: WiDr cells treated 8 hours with vemurafenib ± gefitinib or cetuximab; FIG. 1B
Description: as §1
This high throughput kinase-activity mapping (HT-KAM) platform uses arrays of peptides that act as sensors of phosphorylation activity (7). The phospho-catalytic signature of samples is established from simultaneously occurring ATP-consumption tests measured in the presence of individual peptides that are experimentally isolated from each other. […] Luminescence is acquired using the Synergy 2 Multi-Mode Microplate Reader from BioTek. Luminescence data are inversely correlated with the amount of kinase activity. […]

[3] = test system: RKO1; test: Cell viability assay (CellTiter-Glo), GI50, 3-day treatment; conditions: 72 h; RKO1 (BRAF^V600E CRC); 50% growth inhibition after 3 days of treatment compared to control; read-out: GI50 concentrations
Description: To assess the growth/survival response of cell lines to single or combinatorial drug treatments, we used CellTiter-Glo cell viability assay (Promega; cat #G7571). Cell culture and luminescence readouts were performed in 96- and 384-well plates after 3-day treatments. GI50 corresponds to the concentration of a given drug that causes 50% inhibition of cell growth (GI50). The effects of drug combinations on cell growth were assessed by calculating fold change in VEM-sensitivity and combination index (C.I.) that were experimentally measured from ≥9 individual datapoints around drugs' GI50, i.e. at GI50, 0.5×GI50, 2×GI50 concentrations of each drug per drug combination experiment. To address the particular effects of some drug treatments on some cell lines, the choice of experimental datapoints centered around drugs' GI50 effects was adjusted by including individual datapoints ranging from ≥GI25 to ≤GI75, leading to calculate fold change in VEM-sensitivity and combination index (C.I.) from 12 to 20 individual datapoints, as previously explained (7).

SMILES: CCCS(=O)(=O)Nc1ccc(F)c(C(=O)c2c[nH]c3ncc(-c4ccc(Cl)cc4)cc23)c1F [vemurafenib, N-[3-[5-(4-chlorophenyl)-1H-pyrrolo[2,3-b]pyridine-3-carbonyl]-2,4-difluorophenyl]propane-1-sulfonamide]
- SFK activation (phosphorylation of Y419) [1]: increased SFK activation
- SRC kinase activity [2]: most significantly increased kinase activity
- GI50 [3]: 1.7 µM
